# Experimental data: article PMC2864270 (PLoS Neglected Tropical Diseases, 2010)
# Where two headings read alike, the source gives them in different places.
# Columns and labels:
# [1] = system: L. donovani promastigote; test: Resazurin viability assay, L. donovani promastigotes; type: cell-based; conditions: Leishmania donovani
# Protocol: (§1) L. major MHOM/IL/81/FRIEDLIN and L. donovani MHOM/ET/67/HU3 promastigotes were cultivated at 28°C in axenic M199 culture medium (Welgene, S. Korea) supplemented with 10% heat-inactivated fetal bovine serum (FBS) (Gibco, United States) and 1% streptomycin/penicillin (Gibco, United States).
# After compound addition to the assay plate (Evotec™ 384-well microplate, Germany), 20,000 L. major promastigote parasites from an exponential phase culture (∼10^7 parasites/mL) were diluted in M199, seeded in 50 µL per well using FlexDrop™ and incubated at 28°C for 28 hours, followed by the addition of 5 mM resazurin sodium salt (Sigma R7017, United States) and further incubation for 20 hours at 28°C. After a 48-hour exposure to compounds, the reference drug (EtBr) or control (1% DMSO), the parasites were fixed with 2% paraformaldehyde (PFA) and plates were read in Victor3™ (Perkin Elmer) at 530 nm (excitation) and 590 nm (emission). This fixation step is not necessary for resazurin readout, but allows flexibility in the automation schedule and increases assay robustness by decreasing metabolic variability between populations across wells and plates. Z-factor, calculated as 1−(3×σp+3×σn)/(|μp−μn|), where μp, σp, μn and σn are the means (μ) and standard deviations (σ) of both the positive (p) and negative (n) controls, and other parameters, including DRC plates for verification of the reference drug EC50 (accepted if within the range of 3× higher or lower than a defined value from the literature), coefficient of variation not higher than 10% in the controls and edge effect evaluation, were used for screening validation and hits selection.
# Infection of human macrophage cells in vitro with Leishmania has been previously described as a suitable model for screening and was adopted for our purpose. The 124 active compounds selected from the secondary assay were tested in 10-point dose response with 2-fold serial dilutions starting from 20 µM against promastigotes and intracellular amastigotes of L. major and L. donovani infecting macrophages. The average Z-factor calculated per plate based on the reference drug (amphotericin B) and carrier (1% DMSO) was 0.62 for L. major infection and 0.59 for L. donovani infection, and minimum accepted Z-factor for the analysis was 0.5.
# [2] = system: L. major promastigote; test: Primary screening resazurin viability assay, L. major promastigotes; type: cell-based, Leishmania major; conditions: for EC50: Leishmania major, promastigotes; for Active compound selection in the 4,000-compound library screen: cut-off 70% proliferation inhibition at the lowest compound concentration (0.2–0.02 µM), duplicate, data not shown
# Protocol: as §1
# After compound addition to the assay plate (Evotec™ 384-well microplate, Germany), 20,000 L. major promastigote parasites from an exponential phase culture (∼10^7 parasites/mL) were diluted in M199, seeded in 50 µL per well using FlexDrop™ and incubated at 28°C for 28 hours, followed by the addition of 5 mM resazurin sodium salt (Sigma R7017, United States) and further incubation for 20 hours at 28°C. After a 48-hour exposure to compounds, the reference drug (EtBr) or control (1% DMSO), the parasites were fixed with 2% paraformaldehyde (PFA) and plates were read in Victor3™ (Perkin Elmer) at 530 nm (excitation) and 590 nm (emission). This fixation step is not necessary for resazurin readout, but allows flexibility in the automation schedule and increases assay robustness by decreasing metabolic variability between populations across wells and plates.
# The effect of compounds on Leishmania viability was assessed by fluorometric measurement of resazurin reduction. […] Reference compounds for antileishmanial activity (EtBr, amphotericin B, miltefosine and paromomycin) were tested (Fig. 1B) as a step of the validation process. […] Assay validation was performed on three separate days using 33 microplates (384 wells/plate) containing only controls. […] After assay validation, we screened a 4,000-compound library containing a number of compounds with known pharmacological properties. […] This assay was done in duplicate and results of each concentration assay are represented as individual graphs in Fig. 1D.
# [3] = target: CYP3A4 (Homo sapiens, UniProt P08684); test: CYP450 inhibition assay, fluorescent probe BFC; type: in vitro ADME; conditions: for IC50: individual human P450s, eight-point curve
# Protocol: (§2) Individual fluorescent probe substrates were used with individual rhCYP isozymes and fluorescence detection according to a previously published method. Probe substrates were 7-benzyloxy-4-(trifluoromethyl)-coumarin (BFC) for CYP3A4 and 3-[2-(N,N-diethyl-N-methylammonium)ethyl]-7-methoxy-4-methylcoumarin (AMMC) for CYP2D6 in 0.5% DMSO. IC50 was determined using an eight-point concentration curve with three-fold serial dilutions. Victor3™ (Perkin Elmer) was used for quantification in the fluorescent method (Perkin Elmer Life and Analytical Sciences).
# [4] = target: CYP2D6 (Homo sapiens, UniProt P10635); test: CYP450 inhibition assay, fluorescent probe AMMC; type: in vitro ADME; conditions: for IC50: individual human P450s, eight-point curve
# Protocol: as §2
# [5] = Human cell toxicity test, resazurin viability; type: cell-based; conditions: THP-1 cells (non-differentiated); THP-1 human cell line; read-out: Cytotoxicity CC50 THP-1
# Protocol: To assess the cytotoxicity of compounds on THP-1, an acute monocytic leukemia-derived human cell line (ATCC TIB-202™), a viability assay also using resazurin reduction with minor modifications in concentration and incubation time was performed. Z-factor [15] and other parameters were used for secondary screening validation and hit exclusion.
# To exclude potentially toxic compounds from the active list, we performed a secondary viability screening using the non-differentiated human macrophage cell line THP-1. Compounds that interfered with THP-1 viability at a concentration of 10 µM or lower were discarded.
# [6] = system: L. donovani intracellular amastigotes; test: Intracellular amastigotes assay, L. donovani infecting THP-1 macrophages (image-based infection ratio); type: cell-based; conditions: Leishmania donovani, 96 h, intracellular amastigotes infecting THP-1 macrophages, 4 days incubation, read-out: L. donovani EC50 amastigote
# Protocol: (§3) THP-1 cells were cultivated in suspension at a density of 10^5 to 10^6 cells/mL in RPMI (Gibco 1640, United States) medium supplemented with 10% heat-inactivated FBS and 1% streptomycin/penicillin at 37°C and 5% CO2. The differentiation of THP-1 into macrophages was induced by incubation of the cells for 48 hours with phorbol 12-myristate 13-acetate (PMA) at 50 ng/ml. For infection, late-stage L. major or L. donovani rich in metacyclic promastigotes was added to differentiated THP-1 cells (ratio of 50 parasites to 1 host cell) in Evotec™ 384-well microplates using a FlexDrop™ (Perkin Elmer) to dispense 50 µL/well. Compounds were added 24 hours after infection and microplates were incubated at 37°C and 5% CO2 for 4 days. Amphotericin B as the reference compound (positive control) at 10 µM as the EC100 and 1% DMSO (negative control) were used in all the plates for data normalization (see bellow). […] Microplates were read in an Opera confocal microscope (Perkin Elmer), enabling the determination of the infection ratio of the parasites by image analysis. […] The macrophage nuclei and internalized parasites were identified and counted if localized in the foreground previously selected (Figure S1). With this technique, extracellular parasites were not considered in the calculations, and the infection ratio was determined by the number of infected cells divided by the total number of cells after normalization based on the controls. The average infection ratios from the positive and negative controls were normalized to 0% and 100% infection, and the infection ratio read from each compound activity was proportionally distributed within this range. […]
# (§4) Infection of human macrophage cells in vitro with Leishmania has been previously described as a suitable model for screening and was adopted for our purpose. […] The average Z-factor calculated per plate based on the reference drug (amphotericin B) and carrier (1% DMSO) was 0.62 for L. major infection and 0.59 for L. donovani infection, and minimum accepted Z-factor for the analysis was 0.5.
# [7] = Microsomal stability assay, rat liver microsomes; type: in vitro ADME, Sprague-Dawley Rat; conditions: 2 µM compound, 0.5 mg/mL microsomes; for half-life at 2 µM: Sprague-Dawley, rat, liver microsomes, first-order kinetics, read-out: theoretical half-life, rat liver microsomes
# Protocol: (§5) Compounds at a concentration of 2 µM in 0.2% DMSO were incubated with 0.5 mg/mL rat (Sprague-Dawley Rat, BD Gentest) and human (human pool donors, BD Gentest) liver microsomes in potassium phosphate buffer in a reaction started by the addition of NADPH and stopped either immediately or at 5, 10, 30, 60 or 120 minutes for a precise estimate of microsomal stability. The corresponding loss of the parent compound was determined by a quadrupole liquid chromatography-mass spectrometry (LC-MS) with diode-array detection (Agilent 1200, Agilent Technology). The samples were passed through trapping cartridges (Security Guard Cartridge, Gemini C18, 4×2.0 mm, 3 µm, Phenomenex) followed by an analytical column (Gemini C18, 50×2.0 mm, 3 µm, Phenomenex). Positive electrospray ionization (ESI+) was employed for this analysis. The mobile phases A (water with 0.1% formic acid) and B (acetonitrile with 0.1% formic acid) were used at a flow rate of 0.3 mL/min. Gradient elution started with 95% mobile phase A and 5% mobile phase B. Elution was changed to a linear gradient until 50% A and B for 1 min. This condition was held for 0.5 min, then increased to 95% B over 0.5 min, and held for 1.5 min. Then, the elution gradient returned to 95% A and 5% B over 0.5 min, was held for the remaining 3.5 min. The percentage of the remaining compound was calculated by comparison with the initial quantity at 0 min. Half-life was calculated based on first-order reaction kinetics.
# [8] = Microsomal stability assay, human liver microsomes; type: in vitro ADME; conditions: 2 µM compound, 0.5 mg/mL microsomes; for parent compound remaining after 30 minutes, human liver microsomes: NADPH
# Protocol: as §5
# [9] = system: L. major intracellular amastigotes; test: Intracellular amastigotes assay, L. major infecting THP-1 macrophages (image-based infection ratio); type: cell-based; conditions: Leishmania major, 96 h, intracellular amastigotes infecting THP-1 macrophages, 4 days incubation, read-out: L. major EC50 amastigote
# Protocol: as §3, §4
# [10] = Fig. 1B, HTS format, read-out: EC50 of reference compound, L. major (black line)
# [11] = Fig. 1B, HTS format, promastigotes, read-out: EC50 of reference compound, L. donovani (grey dashed line)
# [12] = promastigotes, 10-point dose response, 2-fold dilutions from 20 µM, read-out: L. donovani EC50 promastigote
# [13] = 10-point dose response, 2-fold dilutions from 20 µM, read-out: L. major EC50 promastigote
# CYP3A4, sequence (P08684 whole entry): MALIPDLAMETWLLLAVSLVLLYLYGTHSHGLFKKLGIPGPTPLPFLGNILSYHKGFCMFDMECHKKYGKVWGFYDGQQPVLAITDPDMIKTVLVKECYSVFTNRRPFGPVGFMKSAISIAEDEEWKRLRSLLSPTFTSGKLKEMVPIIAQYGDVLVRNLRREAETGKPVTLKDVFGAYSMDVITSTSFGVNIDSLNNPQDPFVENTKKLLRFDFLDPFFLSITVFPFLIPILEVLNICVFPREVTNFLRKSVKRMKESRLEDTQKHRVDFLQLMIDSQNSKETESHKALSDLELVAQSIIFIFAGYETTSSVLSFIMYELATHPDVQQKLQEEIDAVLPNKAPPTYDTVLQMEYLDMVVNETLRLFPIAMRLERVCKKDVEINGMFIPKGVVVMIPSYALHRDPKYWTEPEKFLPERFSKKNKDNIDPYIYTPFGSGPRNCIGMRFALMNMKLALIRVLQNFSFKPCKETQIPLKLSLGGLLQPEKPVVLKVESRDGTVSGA
# CYP2D6, sequence (P10635 whole entry): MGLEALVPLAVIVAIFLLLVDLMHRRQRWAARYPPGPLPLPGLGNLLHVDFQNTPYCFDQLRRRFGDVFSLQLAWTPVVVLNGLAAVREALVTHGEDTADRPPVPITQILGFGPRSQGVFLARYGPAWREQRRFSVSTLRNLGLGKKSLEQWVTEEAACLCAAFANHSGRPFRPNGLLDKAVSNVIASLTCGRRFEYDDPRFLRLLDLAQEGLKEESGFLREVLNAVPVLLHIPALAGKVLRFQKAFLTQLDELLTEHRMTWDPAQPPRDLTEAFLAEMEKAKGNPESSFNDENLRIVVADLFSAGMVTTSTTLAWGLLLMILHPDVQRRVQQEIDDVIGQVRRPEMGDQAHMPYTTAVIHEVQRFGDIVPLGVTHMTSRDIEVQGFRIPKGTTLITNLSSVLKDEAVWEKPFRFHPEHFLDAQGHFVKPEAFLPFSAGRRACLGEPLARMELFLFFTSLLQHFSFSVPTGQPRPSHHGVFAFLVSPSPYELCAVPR
compound,measurement,setting,value
"CC[n+]1c(-c2ccccc2)c2cc(N)ccc2c2ccc(N)cc21 [EtBr, Ethidium bromide]",EC50,"[1]; read-out: EC50 of reference compound, L. donovani (grey dashed line)",5 nM
same,EC50,[2]; [10],14 nM
NC(=O)N/N=C/c1ccc([N+](=O)[O-])o1 [nitrofural],"Active compound selection in the 4,000-compound library screen",[2],active
COc1ccc2cc3[n+](cc2c1OC)CCc1cc2c(cc1-3)OCO2 [berberine chloride],"Active compound selection in the 4,000-compound library screen",[2],active
NC[C@@H]1O[C@H](O[C@H]2[C@@H](O)[C@H](O[C@@H]3[C@@H](O)[C@H](N)C[C@H](N)[C@H]3O[C@H]3O[C@H](CO)[C@@H](O)[C@H](O)[C@H]3N)O[C@@H]2CO)[C@H](N)[C@@H](O)[C@@H]1O [paromomycin],EC50,[1]; [11],13000 nM
same,EC50,[2]; [10],62500 nM
O=C1OCCN1/N=C/c1ccc([N+](=O)[O-])o1 [furazolidone],"Active compound selection in the 4,000-compound library screen",[2],active
COc1ccc(C[C@H]2NC[C@H](O)[C@H]2OC(C)=O)cc1 [anisomycin],"Active compound selection in the 4,000-compound library screen",[2],active
CCCCCCCCCCCCCCCCOP(=O)([O-])OCC[N+](C)(C)C [miltefosine],EC50,[1]; [11],2700 nM
same,EC50,[2]; [10],4700 nM
Cc1nc2c(Cl)cccc2c(O)c1CN1CCCCC1C (stereo not shown) [CH872],EC50,[3],> 10000 nM
same,IC50,[3],> 10000 nM
same,EC50,[1]; [12],50 nM
same,EC50,[4],> 10000 nM
same,IC50,[4],> 10000 nM
same,CC50,[5],> 10000 nM
same,EC50,[6],60 nM
same,"time after which completely degraded, rat liver microsomes",[7],25 min
same,half-life at 2 µM,[7],4.1 min
same,"parent compound remaining after 30 minutes, human liver microsomes",[8],99.6%
same,"theoretical half-life, human liver microsomes",[8]; first-order kinetics,long
same,EC50,[2]; [13],100 nM
same,EC50,[9],300 nM
CC1CS(=O)(=O)CCN1/N=C/c1ccc([N+](=O)[O-])o1 (stereo not shown) [nifurtimox],"Active compound selection in the 4,000-compound library screen",[2],active
"C[C@@H]1[C@H](O)[C@@H](C)/C=C/C=C/C=C/C=C/C=C/C=C/C=C/[C@H](O[C@@H]2O[C@H](C)[C@@H](O)[C@H](N)[C@@H]2O)C[C@@H]2O[C@](O)(C[C@@H](O)C[C@@H](O)[C@H](O)CC[C@@H](O)C[C@@H](O)CC(=O)O[C@H]1C)C[C@H](O)[C@H]2C(=O)O [amphotericin B, reference compound]",EC50,[1]; [11],1300 nM
same,EC50,[6],820 nM
same,EC50,[2]; [10],3900 nM
same,EC50,[9],1060 nM
C=C1C(=O)O[C@H]2[C@H]1CC/C(C)=C/CC[C@@]1(C)O[C@@H]21 [parthenolide],"Active compound selection in the 4,000-compound library screen",[2],active
N=C(N)c1ccc(OCCCCCOc2ccc(C(=N)N)cc2)cc1 [pentamidine isethionate],"Active compound selection in the 4,000-compound library screen",[2],active
COc1cc(/C=N/NC(=O)c2cccc(C)c2O)ccc1OCc1ccccc1 [CA272],EC50,[3],3410 nM
same,IC50,[3],3410 nM
same,EC50,[1]; [12],2700 nM
same,EC50,[4],> 10000 nM
same,IC50,[4],> 10000 nM
same,CC50,[5],> 10000 nM
same,EC50,[6],19000 nM
same,"parent compound remaining, rat liver microsomes","[7]; NADPH, 30 minutes",53.3%
same,half-life at 2 µM,[7],31.8 min
same,"parent compound remaining after 30 minutes, human liver microsomes",[8],77.8%
same,half-life at 2 µM,"[8]; human, liver microsomes, first-order kinetics, read-out: theoretical half-life, human liver microsomes",79.4 min
same,EC50,[2]; [13],2700 nM
same,EC50,[9],800 nM
